According to the supplement of paper PMC10307832:

What was measured:
Test in all cases: relative viability (nuclei count vs DMSO), 5 days (fraction); higher = more cells survive
[1] = compound: CC1=C(C=C(C=C1)NC(=O)C2=CC(=CC=C2)C(C)(C)C#N)NC3=CC4=C(C=C3)N=CN(C4=O)C [AZ628] + CCNC(=O)c1noc(-c2cc(C(C)C)c(O)cc2O)c1-c1ccc(CN2CCOCC2)cc1 [Luminespib] (partner 0.01 µM)
Summary of the method: (§1)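 Values are medians from duplicate plates. Each reflects relative viability, defined as the nuclei count of treated wells over that of vehicle wells. Lung cancer cell lines in 1536-well plates were pin-tool dosed one day after seeding with one drug alone or with a fixed anchor-drug dose plus five library-drug doses (not always all listed) in √10 steps, then fixed, stained and imaged at 4× after 5 days.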

[2] = compound: C[As](C)SC[C@H](NC(=O)CC[C@H](N)C(=O)O)C(=O)NCC(=O)O [Darinaparsin] + CCNC(=O)c1noc(-c2cc(C(C)C)c(O)cc2O)c1-c1ccc(CN2CCOCC2)cc1 [Luminespib] (partner 0.01 µM)
Summary of the method: as §1

[3] = compound: C[As](C)SC[C@H](NC(=O)CC[C@H](N)C(=O)O)C(=O)NCC(=O)O [Darinaparsin] + C[C@@H](Oc1cc(-c2cnn(C3CCNCC3)c2)cnc1N)c1c(Cl)ccc(F)c1Cl [Crizotinib] (partner 1 µM)
Summary of the method: as §1

[4] = compound: C[As](C)SC[C@H](NC(=O)CC[C@H](N)C(=O)O)C(=O)NCC(=O)O [Darinaparsin] + N=C(N)NC(=N)NCCc1ccccc1 [Phenformin] (partner 250 µM)
Summary of the method: as §1

Cell Line	relative viability ([1]; first compound 0.08 µM)	relative viability ([1]; first compound 0.253 µM)	relative viability ([1]; first compound 0.8 µM)	relative viability ([1]; first compound 2.53 µM)	relative viability ([1]; first compound 8 µM)	relative viability ([2]; first compound 0.08 µM)	relative viability ([2]; first compound 0.8 µM)	relative viability ([2]; first compound 2.53 µM)	relative viability ([2]; first compound 8 µM)	relative viability ([3]; first compound 0.08 µM)	relative viability ([3]; first compound 0.8 µM)	relative viability ([3]; first compound 2.53 µM)	relative viability ([3]; first compound 8 µM)	relative viability ([4]; first compound 0.08 µM)	relative viability ([4]; first compound 0.8 µM)	relative viability ([4]; first compound 2.53 µM)	relative viability ([4]; first compound 8 µM)
NCI-H647	0.155	0.132	0.221	0.186	0.186	0.176	0.154	0.0855	0.215	1.66	1.1	1.16	1.6	0.62	0.479	0.474	0.696
NCI-H1563	0.531	0.524	0.519	0.56	0.515	0.588	0.429	0.495	0.473	0.903	0.768	0.87	0.874	0.773	0.619	0.658	0.642
NCI-H1915	0.921	0.816	0.73	0.6	0.365	1.04	0.795	0.625	0.827	1.06	0.839	0.795	1.13	0.404	0.373	0.359	0.375
201T	1.07	1.02	1.14	1.05	1.14	1.1	1.03	0.958	1.16	1.09	1.02	1	1.09	0.478	0.451	0.404	0.5
NCI-H3122	0.0933	0.0771	0.11	0.0973	0.0958	0.0869	0.0882	0.107	0.112	0.336	0.258	0.251	0.289	0.435	0.328	0.378	0.411
NCI-H2170	0.802	0.725	0.789	0.752	0.731	0.82	0.381	0.727	1.1	1.61	1.35	0.953	1.51	0.429	0.427	0.424	0.464
HARA	0.463	0.726	0.548	0.779	0.39	1.19	0.684	0.659	0.773	1.46	1.05	0.783	1.27	0.542	0.416	0.38	0.728
NCI-H2347	0.287	0.239	0.301	0.255	0.218	1.01		0.414	0.388	0.709	0.703	0.747	0.696	0.451		0.396	0.403
NCI-H1437	1.23	1.06	1.09	1.16	1.14	1.32	1.21	1.08	1.36	1.23	0.865	0.716	1.32	0.327	0.298	0.358	0.281
LXF-289	0.672	0.67	0.681	0.653	0.544	0.773	0.499	0.578	1.06	0.855	0.814	0.682	0.906	0.556	0.523	0.471	0.556
NCI-H1792	0.528	0.372	0.334	0.435	0.192	0.681	0.387		0.539	1.95	0.989	0.654	1.34	0.334	0.258		0.205
LU99A	0.306	0.283	0.23	0.207	0.183	0.228	0.24	0.241	0.222	0.626	0.574	0.461	0.593	0.927	0.856	0.897	0.78
NCI-H358	0.285	0.279	0.273	0.311	0.167	0.416	0.332		0.344	0.566	0.499	0.576	0.673	0.429	0.387	0.331	0.376
NCI-H1666	0.978	0.882	0.848	0.843	0.829	1.05	0.897	1.24	1.07	0.904	0.927	1.02	1.14	0.623	0.545	0.617	0.575
LOU-NH91	0.299	0.396	0.332	0.308	0.293	0.407	0.31	0.306	0.345	0.779	0.759	0.75	0.737	0.731	0.683	0.692	0.705
RERF-LC-KJ	1.21	1.23	1.43	1.08	1.19	1.97	1.21	1.11	1.15	1.01	0.925	0.791	0.96	0.495	0.447	0.369	0.434
NCI-H2085	0.538	0.41	0.468	0.503	0.33	0.45	0.383	0.545	0.398	0.936	0.858	0.768	0.9	0.852	0.797	0.706	0.747
